Laboratory results taken from patent US6670367B1, “Azinyloxy, and phenoxy-diaryl-carboxylic acid derivatives, their preparation and use as mixed ETA/ETB endothelin receptor antagonists” (Abbott GmbH & Co., KG, priority 1996, dated 2003).
pKi: −log10 of the molar value.

Assays:
[1] = molecular target: T1, human ETB receptor (Homo sapiens, UniProt P24530); experiment: ETB receptor binding assay (125I-ET3, membranes of receptor-expressing CHO cells); conditions: cloned human ETB receptor, CHO cell membranes, 25 pM 125I-ET3, 25° C., 30 min
T1 construct: expressed in transfected cells; host or cells: CHO cells (membrane preparation)
T1 sequence (P24530 27-442): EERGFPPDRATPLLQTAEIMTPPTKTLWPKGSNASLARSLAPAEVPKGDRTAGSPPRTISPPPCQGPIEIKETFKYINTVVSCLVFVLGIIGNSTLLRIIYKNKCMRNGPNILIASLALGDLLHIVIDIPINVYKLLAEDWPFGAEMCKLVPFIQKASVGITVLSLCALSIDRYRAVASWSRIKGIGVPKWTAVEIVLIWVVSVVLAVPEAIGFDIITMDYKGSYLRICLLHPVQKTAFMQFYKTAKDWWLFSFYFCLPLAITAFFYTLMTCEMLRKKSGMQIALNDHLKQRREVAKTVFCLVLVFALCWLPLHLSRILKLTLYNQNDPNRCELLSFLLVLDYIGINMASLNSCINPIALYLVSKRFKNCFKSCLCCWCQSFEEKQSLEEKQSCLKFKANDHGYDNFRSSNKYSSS
Method: (§1) Cloned human ETA or ETB receptor-expressing CHO cells were employed for binding studies.
(§2) The ETA or ETB receptor-expressing CHO cells were grown in DMEM NUT MIX F12 medium (Gibco, No. 21331-020) with 10% fetal calf serum (PAA Laboratories GmbH, Linz, No. A15-022), 1 mM glutamine (Gibco No. 25030-024), 100 U/ml penicillin and 100 μg/ml streptomycin (Gibco, Sigma No. P-0781). After 48 hours, the cells were washed with PBS and incubated with 0.05% trypsin-containing PBS at 37° C. for 5 minutes. Neutralization with medium was then carried out, and the cells were collected by centrifugation at 300×g.
(§3) For the membrane preparation, the cells were adjusted to a concentration of 10^8 cells/ml of buffer (50 mM tris.HCL buffer, pH 7.4) and then disintegrated by ultrasound (Branson Sonifier 250, 40-70 seconds/constant/output 20).
(§4) For the ETA and ETB receptor binding assays, the membranes were suspended in incubation buffer (50 mM tris-HCl, pH 7,4 with 5 mM MnCl2, 40 μg/ml bacitracin and 0.2% BSA) at a concentration of 50 μg of protein per assay mixture, and incubated with 25 pM ^125I-ET1 (ETA receptor assay) or 25 pM ^125I-ET3 (ETB receptor assay) in the presence and absence of test substance at 25° C. The nonspecific binding was determined with 10^−7 M ET1. Filtration was carried out after 30 min through GF/B glassfiber filters (Whatman, England) in a Skatron cell collector (Skatron, Lier, Norway) to separate free and bound radio ligands, and the filters were washed with ice-cold tris-HCl buffer, pH 7.4 with 0.2% BSA. The radioactivity collected on the filters was quantified using a
(§5) Packard 2200 CA liquid scintillation counter.

[2] = molecular target: T2, human ETA receptor (Homo sapiens, UniProt P25101); experiment: ETA receptor binding assay (125I-ET1, membranes of receptor-expressing CHO cells); conditions: cloned human ETA receptor, CHO cell membranes, 25 pM 125I-ET1, 25° C., 30 min
T2 construct: expressed in transfected cells; host or cells: CHO cells (membrane preparation)
T2 sequence (P25101 21-427): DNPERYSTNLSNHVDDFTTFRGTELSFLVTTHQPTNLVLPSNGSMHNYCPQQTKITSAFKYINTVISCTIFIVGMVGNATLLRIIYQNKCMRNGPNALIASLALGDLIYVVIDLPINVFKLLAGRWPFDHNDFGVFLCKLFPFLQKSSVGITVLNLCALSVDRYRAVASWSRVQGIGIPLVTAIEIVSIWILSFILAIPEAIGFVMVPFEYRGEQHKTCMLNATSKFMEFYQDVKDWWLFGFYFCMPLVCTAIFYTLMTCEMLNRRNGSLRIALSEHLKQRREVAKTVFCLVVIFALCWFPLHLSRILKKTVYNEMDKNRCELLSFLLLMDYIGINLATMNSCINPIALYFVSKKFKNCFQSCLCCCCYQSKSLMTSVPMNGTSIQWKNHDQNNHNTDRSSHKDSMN
Method: as §1, §2, §3, §4, §5

| Compound | pKi [1] | pKi [2] | melting point |
| --- | --- | --- | --- |
| COc1nc(OC(C(=O)O)C(OCCc2ccc(C)cc2)(c2ccccc2)c2ccccc2)nc2c1CCO2 (stereo not drawn) [Compound I-370, 2-(4-Methoxy-5,6-dihydrofuro(2,3d)-2-pyrimidinyloxy)-3-(2-(4-methylphenyl)ethoxy)-3,3-diphenylpropionic Acid] | 7.27 | 7.96 | 128 to 130 °C |
| COc1cc(CCOC(c2ccc(Cl)cc2)(c2ccc(Cl)cc2)C(Oc2nc(OC)c3c(n2)OCC3)C(=O)O)cc(OC)c1 (stereo not drawn) [Compound I-593, 2-(4-Methoxy-5,6-dihydrofuro(2,3d)-2-pyrimidinyloxy)-3-(2-(3,5-dimethoxyphenyl)ethoxy)-3,3-di(4-chlorophenyl)propionic Acid] | 6.80 | 6.52 | 90 to 100 °C |
| COc1ccc(CCOC(c2ccccc2)(c2ccccc2)C(Oc2nc(C)cc(C)n2)C(=O)O)cc1OC (stereo not drawn) [Compound I-445] | 8.14 | 8.46 | 125 to 130 °C (dec.) |
| Cc1cc(C)nc(OC(C(=O)O)C(OCCc2ccc(Cl)cc2)(c2ccccc2)c2ccccc2)n1 (stereo not drawn) [Compound I-713, 2-(4,6-Dimethyl-2-pyrimidinyloxy)-3-(2-(4-chlorophenyl)ethoxy)-3,3-diphenylpropionic Acid] | 7.02 | 7.70 | 108 °C (dec.) |
| COc1cc(CCOC(c2ccccc2)(c2ccccc2)C(Oc2nc3c(c(OC)n2)CCC3)C(=O)O)cc(OC)c1 (stereo not drawn) [Compound I-321] | 6.54 | 6.47 | – |
| COc1cc(C)nc(OC(C(=O)O)C(OCCc2ccc(OC)c(OC)c2)(c2ccccc2)c2ccccc2)n1 (stereo not drawn) [Compound I-482, 2-(4-Methoxy-6-methyl-2-pyrimidinyloxy)-3-(2-(3,4-dimethoxyphenyl)ethoxy)-3,3-diphenylpropionic Acid] | 7.85 | 8.70 | – |
| COc1ccc(CCOC(c2ccc(Cl)cc2)(c2ccc(Cl)cc2)C(Oc2nc(OC)c3c(n2)OCC3)C(=O)O)cc1OC (stereo not drawn) [Compound I-635, 2-(4-Methoxy-5,6-dihydrofuro(2,3d)-2-pyrimidinyloxy)-3-(2-(3,4-dimethoxyphenyl)ethoxy)-3,3-di(4-chlorophenyl)propionic Acid] | 6.90 | 6.68 | 100 to 110 °C |
| COc1cc(C)nc(OC(C(=O)O)C(OCCc2ccc(OC)c(OC)c2)(c2ccc(Cl)cc2)c2ccc(Cl)cc2)n1 (stereo not drawn) [Compound I-699, 2-(4-Methoxy-6-methyl-2-pyrimidinyloxy)-3-(2-(3,4-dimethoxyphenyl)ethoxy)-3,3-di(4-chlorophenyl)propionic Acid] | 6.89 | 6.64 | 100 to 110 °C |
| COc1ccc(CCOC(c2ccc(C)cc2)(c2ccc(C)cc2)C(Oc2nc(OC)c3c(n2)OCC3)C(=O)O)cc1 (stereo not drawn) [Compound I-355] | 7.09 | 6.88 | – |
